From the supplement of paper PMC10307832

How the values were obtained:
Assay in all cases: relative viability (nuclei count vs DMSO), 5 days (fraction); higher = more cells survive
Venetoclax + Crizotinib = compound: CC1(C)CCC(CN2CCN(c3ccc(C(=O)NS(=O)(=O)c4ccc(NCC5CCOCC5)c([N+](=O)[O-])c4)c(Oc4cnc5[nH]ccc5c4)c3)CC2)=C(c2ccc(Cl)cc2)C1 [Venetoclax] + C[C@@H](Oc1cc(-c2cnn(C3CCNCC3)c2)cnc1N)c1c(Cl)ccc(F)c1Cl [Crizotinib] (partner 1 µM)
How it was run: (§1)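 Cells from lung cancer lines were seeded into 1536-well plates and, one day later, dosed by pin tool. Treatments were either a single drug or a fixed dose of an anchor drug with five library-drug doses (not always all listed) in √10 steps. After 5 days, nuclei were stained in a one-step fixation (final 0.05% Triton X-100, 1% formaldehyde, 1 ug/ml Hoechst) and counted on 4× images, and relative viability is the treated-to-vehicle nuclei ratio, as the median of duplicate plates.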

Venetoclax + Linsitinib = compound: CC1(C)CCC(CN2CCN(c3ccc(C(=O)NS(=O)(=O)c4ccc(NCC5CCOCC5)c([N+](=O)[O-])c4)c(Oc4cnc5[nH]ccc5c4)c3)CC2)=C(c2ccc(Cl)cc2)C1 [Venetoclax] + C[C@]1(O)C[C@@H](c2nc(-c3ccc4ccc(-c5ccccc5)nc4c3)c3c(N)nccn32)C1 [Linsitinib] (partner 1 µM)
How it was run: as §1

Venetoclax + Foretinib = compound: CC1(C)CCC(CN2CCN(c3ccc(C(=O)NS(=O)(=O)c4ccc(NCC5CCOCC5)c([N+](=O)[O-])c4)c(Oc4cnc5[nH]ccc5c4)c3)CC2)=C(c2ccc(Cl)cc2)C1 [Venetoclax] + COc1cc2c(Oc3ccc(NC(=O)C4(C(=O)Nc5ccc(F)cc5)CC4)cc3F)ccnc2cc1OCCCN1CCOCC1 [Foretinib] (partner 0.25 µM)
How it was run: as §1

Selumetinib + Pictilisib = compound: Cn1cnc2c(F)c(Nc3ccc(Br)cc3Cl)c(C(=O)NOCCO)cc21 [Selumetinib] + CS(=O)(=O)N1CCN(Cc2cc3nc(-c4cccc5[nH]ncc45)nc(N4CCOCC4)c3s2)CC1 [Pictilisib] (partner 1 µM)
How it was run: as §1

Row | Cell Line | relative viability (Venetoclax + Crizotinib; first compound 0.01 µM) | relative viability (Venetoclax + Crizotinib; first compound 0.03162 µM) | relative viability (Venetoclax + Crizotinib; first compound 0.1 µM) | relative viability (Venetoclax + Crizotinib; first compound 0.3162 µM) | relative viability (Venetoclax + Crizotinib; first compound 1 µM) | relative viability (Venetoclax + Linsitinib; first compound 0.01 µM) | relative viability (Venetoclax + Linsitinib; first compound 0.03162 µM) | relative viability (Venetoclax + Linsitinib; first compound 0.1 µM) | relative viability (Venetoclax + Linsitinib; first compound 0.3162 µM) | relative viability (Venetoclax + Linsitinib; first compound 1 µM) | relative viability (Venetoclax + Foretinib; first compound 0.01 µM) | relative viability (Venetoclax + Foretinib; first compound 0.03162 µM) | relative viability (Venetoclax + Foretinib; first compound 0.1 µM) | relative viability (Venetoclax + Foretinib; first compound 0.3162 µM) | relative viability (Venetoclax + Foretinib; first compound 1 µM) | relative viability (Selumetinib + Pictilisib; first compound 0.02 µM) | relative viability (Selumetinib + Pictilisib; first compound 0.06325 µM) | relative viability (Selumetinib + Pictilisib; first compound 0.2 µM) | relative viability (Selumetinib + Pictilisib; first compound 0.6325 µM)
1 | EKVX | 0.834 | 0.985 | 0.897 | 0.895 | 0.882 | 0.909 | 0.976 | 0.88 | 1.03 | 0.844 | 0.657 | 1.24 | 0.332 | 0.795 | 0.788 | 0.395 | 0.391 | 0.317 | 0.243
2 | NCI-H358 | 0.577 | 0.609 | 0.581 | 0.837 | 0.63 | 0.754 | 0.812 | 0.624 | 0.679 | 0.702 | 0.69 | 0.66 | 0.694 | 0.695 | 0.638 | 0.316 | 0.302 | 0.314 | 0.277
3 | H3255 | 0.815 | 0.824 | 0.837 | 0.773 | 1.05 | 1 | 0.953 | 0.809 | 0.873 | 0.915 | 0.835 | 1 | 0.865 | 0.893 | 0.788 | 0.434 | 0.462 | 0.38 | 0.36
4 | NCI-H1651 | 0.866 | 0.856 | 0.879 | 0.889 | 0.825 | 0.926 | 1.13 | 0.938 | 0.962 | 0.995 | 0.876 | 0.787 | 0.834 | 0.823 | 0.808 | 0.536 | 0.51 | 0.511 | 0.522
5 | NCI-H23 | 0.488 | 0.491 | 0.353 | 0.507 | 0.394 | 0.646 | 0.648 | 0.527 | 0.467 | 0.533 | 0.949 | 0.945 | 1.01 | 1.07 | 0.993 | 0.484 | 0.344 | 0.352 | 0.29
6 | NCI-H1355 | 1.07 | 1.14 | 1.07 | 0.984 | 1.04 | 0.812 | 0.814 | 0.778 | 0.792 | 0.753 | 0.967 | 1.05 | 1.05 | 1.02 | 0.978 | 0.369 | 0.409 | 0.315 | 0.296
7 | NCI-H2085 | 0.815 | 0.903 | 0.765 | 1.02 | 0.745 | 0.881 | 0.782 | 0.853 | 0.909 | 0.853 | 1.01 | 1.03 | 0.905 | 0.919 | 0.884 | 0.449 | 0.374 | 0.356 | 0.365
8 | NCI-H322M | 0.988 | 0.838 | 0.912 | 0.894 | 0.878 | 0.913 | 0.916 | 0.889 | 0.891 | 0.852 | 0.939 | 1 | 0.915 | 0.972 | 1.05 | 0.428 | 0.415 | 0.446 | 0.373
